The results in this text go back to patent publication US8399689B2, “Chrysophaentin antimicrobial compounds that inhibit FtsZ protein” (The United States of America, as represented by the …, priority 2010, dated 2013).

Converted amounts (≈) assume the structure as drawn. “Also recorded” adds a separate entry of the source.

The subject of data set [1] is methicillin-resistant S. aureus (MRSA, ATCC BAA-41). Description: Agar disk diffusion assay, MRSA. Format: cell-based, Staphylococcus aureus. As for the experimental part: (§1) Compounds 1-8 were tested for antimicrobial activity against Staphylococcus aureus (SA, ATCC 25923), methicillin-resistant S. aureus (MRSA, ATCC BAA-41), multidrug-resistant S. aureus (MDRSA, ATCC BAA-44), Enterococcus faecium (EF, ATCC 49032), vancomycin-resistant E. Faecium (VRE, ATCC 700221), and Bacillus subtilis (ATCC 49343) using a modified disk diffusion assay and microbroth liquid dilution assays. For disk diffusion assays, agar plates seeded with suspensions of bacteria were prepared by adding 500 μL of a 24 h culture of bacteria to 100 mL of autoclaved Mueller Hinton II agar and cooled to 55° C. Seeded liquid agar (10 mL) was transferred immediately to square Petri dishes and allowed to cool for 1 h. Control drugs used for each microorganism included kanamycin (50 μg) for S. aureus, and nitrofurantoin (25 μg) for MRSA. Following incubation at 37° C. for 18 h, zones of inhibition were measured. MICso values for compounds 1 and 4-8 were determined using a microbroth dilution assay outlined in the Clinical and Laboratory Standards Institute methods for susceptibility tests for bacteria that grow aerobically. Briefly, single bacterial colonies were used to inoculate 4 mL of Trypticase Soy broth (BD) for overnight growth and inoculum for each were diluted to 5×10^5 CFU/mL using the 0.5 McFarland standard. In a 96 well plate (Costar, round bottom), control antibiotics (oxacillin for SA and MRSA, vancomycin for EF and VRE, chloramphenicol for B. subtilis) or natural product inhibitors were added to Muller Hinton II broth (for S. aureus, MRSA, and B. subtilis) or 10% brain heart infusion broth (for E. faecium and VRE) in the first column of the well plates, and serially diluted across the plate, reserving wells for a positive growth control (no treatment). 10 μL of diluted bacteria were added to all wells with the exception of those kept for broth blanks (MHII or brain heart infusion broth only). Plates were incubated at 37° C. overnight and read at absorbance 600 nm on a Molecular Devices plate reader. Growth curves were plotted and ICso values obtained using Kalidagraph software.
On the technique in general: A growth-free zone around the sample is the usual read-out of agar diffusion tests.

Data set [2] concerns the target T1, recombinant E. coli FtsZ (Escherichia coli, UniProt P0A9A6). Kind of data set: FtsZ GTPase colorimetric (malachite green) assay. Format: biochemical. As to conditions: 2 μM FtsZ, 0.25 mM GTP, pH 6.5.
Method: Solutions were incubated at room temperature for 5 min, followed by addition of 0.25 mM GTP. At the end of a 20-min incubation period, enzyme activity was quenched by addition of 50 μL Malachite Green solution and the wells read at A^625 on an absorbance plate reader.
For data set [3], the system named is methicillin-resistant S. aureus (MRSA, ATCC BAA-41). Description: Microbroth dilution assay, MRSA. As to conditions: microbroth dilution, concentration at which growth is reduced by 50%. It counts as cell-based, Staphylococcus aureus. As for the experimental part:
as §1

Data set [4] deals with T1, recombinant E. coli FtsZ. Kind of data set: FtsZ polymerization assay by transmission electron microscopy. As to conditions: 50 μM compound, 6 μM FtsZ, GTP 1 mM.
Method: Protofilament formation of E. coli FtsZ was assessed by polymerization assays. […] Following an additional 5 minutes incubation period at room temperature, aliquots (5 μL) were adsorbed onto carbon films on lacey carbon supports on 400-mesh copper grids, rinsed with H2O, and exposed to 3% uranyl acetate for 5 minutes for negative staining. Images were acquired with an FEI Morgani transmission electron microscope, operating at 80 kV, and equipped with an AMT Advantage camera at 44,000× magnification.
Data set [5] concerns Bacillus subtilis (ATCC 49343). Kind of data set: Microbroth dilution assay, B. subtilis. As to conditions: ATCC49343. Format: cell-based. As for the experimental part: (§2) Compounds 1-8 were tested for antimicrobial activity against Staphylococcus aureus (SA, ATCC 25923), methicillin-resistant S. aureus (MRSA, ATCC BAA-41), multidrug-resistant S. aureus (MDRSA, ATCC BAA-44), Enterococcus faecium (EF, ATCC 49032), vancomycin-resistant E. Faecium (VRE, ATCC 700221), and Bacillus subtilis (ATCC 49343) using a modified disk diffusion assay and microbroth liquid dilution assays. For disk diffusion assays, agar plates seeded with suspensions of bacteria were prepared by adding 500 μL of a 24 h culture of bacteria to 100 mL of autoclaved Mueller Hinton II agar and cooled to 55° C. Seeded liquid agar (10 mL) was transferred immediately to square Petri dishes and allowed to cool for 1 h. Control drugs used for each microorganism included kanamycin (50 μg) for S. aureus, and nitrofurantoin (25 μg) for MRSA. Following incubation at 37° C. for 18 h, zones of inhibition were measured. MICso values for compounds 1 and 4-8 were determined using a microbroth dilution assay outlined in the Clinical and Laboratory Standards Institute methods for susceptibility tests for bacteria that grow aerobically. […] Plates were incubated at 37° C. overnight and read at absorbance 600 nm on a Molecular Devices plate reader. […]
In general terms: Dilution methods test growth across graded concentrations, often in twofold steps.

In data set [6] the test system is human colon tumor cell line HCT-116. Description: Cytotoxicity, HCT-116. Format: cell-based. As to conditions: did not inhibit growth at concentrations as high as.
For data set [7], the system named is multidrug-resistant S. aureus (MDRSA, ATCC BAA-44). Description: Microbroth dilution assay, MDRSA. It counts as cell-based. As to conditions: Staphylococcus aureus, ATCCBAA44. As for the experimental part: as §2

T1 sequence (P0A9A6 whole entry): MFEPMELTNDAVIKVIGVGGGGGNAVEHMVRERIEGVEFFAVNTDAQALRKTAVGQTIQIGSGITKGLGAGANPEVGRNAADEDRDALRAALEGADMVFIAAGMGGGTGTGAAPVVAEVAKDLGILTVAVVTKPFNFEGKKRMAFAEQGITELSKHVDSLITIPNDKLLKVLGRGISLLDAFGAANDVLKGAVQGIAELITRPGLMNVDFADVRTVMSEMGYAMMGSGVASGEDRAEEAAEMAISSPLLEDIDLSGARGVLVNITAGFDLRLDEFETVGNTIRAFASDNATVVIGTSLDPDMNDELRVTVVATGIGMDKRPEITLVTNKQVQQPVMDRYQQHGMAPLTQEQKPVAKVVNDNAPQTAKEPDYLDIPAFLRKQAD

Usually zone of inhibition stands for the extent of the growth-free halo in a diffusion test. For orientation: IC50 means the point on the concentration scale where inhibition reaches its midpoint. In the case of `Oc1cc(O)c2c(c1)C/C(Cl)=C\Cc1cc(c(Cl)cc1O)Oc1c(O)cc(cc1O)C/C(Cl)=C\Cc1cc(c(Cl)cc1O)O2` [Compound 1, chrysophaentin 1], the “Agar disk diffusion (μg/disk) MRSA” value in data set [1] (Lowest concentrations leading to 8-10 mm zones of inhibition) is 2 μg/disk. For the same compound, in data set [1] (Staphylococcus aureus, at 2 μg/disk), the zone of inhibition at 2 µg/disc is 10 mm. In addition, the IC50 at recombinant E. coli FtsZ [2] (IC50, inhibition of GTPase activity of FtsZ (molar), value in brackets) is 9.9 µM; on recombinant E. coli FtsZ [2] (IC50, inhibition of GTPase activity of FtsZ), 9.88 µM. In addition, the MIC50 in data set [3] (Staphylococcus aureus, read-out: MIC50 (μg/mL) MRSA) amounted to 1.5 ± 0.7 µg/mL (≈ 2.21 µM); in data set [5] it was 7.3 ± 3.7 µg/mL (≈ 10.8 µM); in data set [7] it was 1.3 ± 0.4 µg/mL (≈ 1.92 µM). Also, the “MIC50 (μg/mL) MRSA” value turned out to be 1.5 ± 0.7 µg/mL (≈ 2.21 µM) in data set [3], 1.8 ± 0.6 µg/mL (≈ 2.65 µM) in data set [3] (listed as Chrysophaentin 1) and 1.5 ± 0.7 µg/mL (≈ 2.21 µM) in data set [3] (listed as chrysophaentin 1). For the same compound, at recombinant E. coli FtsZ [4], the “GTP-dependent FtsZ polymerization and protofilament formation (TEM)” value was “polymerization and protofilament formation were inhibited; also recorded: fully inhibited polymerization and protofilament formation”. The “concentration without growth inhibition, HCT-116” value in data set [6] is above 50 µg/mL.
